Assay results published in patent US20240398822A1, “METHODS AND COMPOSITIONS FOR TREATING AND MANAGING ALZHEIMER'S DISEASE” (Pharmatrophix, Inc., priority 2021, published 2024).
“Also recorded” adds a separate entry of the source.

Test system: patients with mild to moderate Alzheimer's disease
Assay: Phase IIa safety and tolerability (adverse events, vital signs, ECG, MRI, laboratory)
Assay type: in vivo, human
Settings: for subjects who discontinued the phase 2a trial due to AEs or SAEs: of 16 subjects in total; for course of the increase in eosinophil level: also where treatment was continued; for overall safety and tolerability: phase IIa
From the text: Safety monitoring included the full extent of phase 2 clinical and laboratory testing.
For all safety evaluations, only an overall ‘Safety’ population is described. This includes all patients who received at least one dose of medication and consider all patients according to the treatment they actually receive. Additionally, a PK population will be described for only patients receiving active study IMP.

[1] = 200 mg bid (N = 78), 26 weeks, safety population
[2] = 200 mg bid (N = 78), 26 weeks, safety population, listed as LM11A
[3] = 200 mg bid (N = 78), 26 weeks, safety population, listed as LM11A-31
[4] = 400 mg bid (N = 83), 26 weeks, safety population
[5] = 400 mg bid (N = 83), 26 weeks, safety population, listed as LM11A
[6] = 400 mg bid (N = 83), 26 weeks, safety population, listed as LM11A-31

CC[C@H](C)[C@H](N)C(=O)NCCN1CCOCC1 [LM11A-31-BHS, Tris[(2S,3S)-2-amino-3-methyl-N-(2-morpholinoethyl)pentanamide] tetra(monohydrogensulfate), monosulfate]
patients discontinued because of AEs (200 mg bd, safety population): 2 patients | patients discontinued because of serious AE (200 mg bd, safety population): 0 patients | AEs Leading To Discontinuation of Study IMP, % of patients [1]: 6.4% | AEs Leading To Discontinuation of Study IMP, freq (events) [1]: 5 | AEs Leading To Discontinuation of Study IMP, n (patients) [1]: 5 | Adverse events, Drug Relationship: Not Related, % of patients [1]: 52.6% | Adverse events, Drug Relationship: Not Related, freq (events) [1]: 85 | Adverse events, Drug Relationship: Not Related, n (patients) [1]: 41 | Adverse events, Drug Relationship: Related, freq (events) [1]: 15 | Adverse events, Drug Relationship: Related, n (patients) [1]: 12 | Adverse events, Intensity: Mild, freq (events) [1]: 86 | Adverse events, Intensity: Mild, n (patients) [1]: 40 | Adverse events, Intensity: Moderate, freq (events) [1]: 12 | Adverse events, Intensity: Moderate, n (patients) [1]: 11 | Adverse events, Intensity: Severe, freq (events) [1]: 2 | Adverse events, Intensity: Severe, n (patients) [1]: 2 | All Adverse Events, % of patients [1]: 60.3% | All Adverse Events, freq (events) [1]: 109 | All Adverse Events, n (patients) [1]: 47 | Serious AEs, % of patients [1]: 2.6% | Serious AEs, freq (events) [1]: 2 | Serious AEs, n (patients) [1]: 2 | Treatment Emergent Adverse Events (TEAEs), % of patients [1]: 59.0% | Treatment Emergent Adverse Events (TEAEs), freq (events) [1]: 100 | Treatment Emergent Adverse Events (TEAEs), n (patients) [1]: 46 | Adverse events, Intensity: Severe, % of patients (200 mg bid (N = 78), 26 weeks, safety population, listed as LM1 1A-31): 6% | Adverse events, Drug Relationship: Related, % of patients [2]: 15.4% | Adverse events, Intensity: Moderate, % of patients [2]: 14.1% | Adverse events, Intensity: Severe, % of patients [2]: 2.6% | Adverse events, Drug Relationship: Related, % of patients [3]: 15% | Adverse events, Intensity: Moderate, % of patients [3]: 14% | Adverse events, Intensity: Severe, % of patients [3]: 3% | Pre-Treatment Signs and Symptoms (PTSS), % of patients (200 mg bid group (N = 78)): 10.3% | Pre-Treatment Signs and Symptoms (PTSS), freq (events) (200 mg bid group (N = 78)): 9 | Pre-Treatment Signs and Symptoms (PTSS), n (patients) (200 mg bid group (N = 78)): 8 | share of the 10 severe TEAEs (200 mg group): 20% | subjects with GI side effects (diarrhea in most cases) (200 mg group): approximately 8% | subjects who discontinued the phase 2a trial due to AEs or SAEs (200 mg group): 2 subjects | patients discontinued because of AEs (400 mg bd, safety population): 8 patients | patients discontinued because of serious AE (400 mg bd, safety population): 3 patients | AEs Leading To Discontinuation of Study IMP, % of patients [4]: 18.1% | AEs Leading To Discontinuation of Study IMP, freq (events) [4]: 20 | AEs Leading To Discontinuation of Study IMP, n (patients) [4]: 15 | Adverse events, Drug Relationship: Not Related, % of patients [4]: 57.8% | Adverse events, Drug Relationship: Not Related, freq (events) [4]: 150 | Adverse events, Drug Relationship: Not Related, n (patients) [4]: 48 | Adverse events, Drug Relationship: Related, freq (events) [4]: 23 | Adverse events, Drug Relationship: Related, n (patients) [4]: 13 | Adverse events, Intensity: Mild, freq (events) [4]: 119 | Adverse events, Intensity: Mild, n (patients) [4]: 46 | Adverse events, Intensity: Moderate, freq (events) [4]: 49 | Adverse events, Intensity: Moderate, n (patients) [4]: 24 | Adverse events, Intensity: Severe, freq (events) [4]: 5 | Adverse events, Intensity: Severe, n (patients) [4]: 5 | All Adverse Events, % of patients [4]: 66.3% | All Adverse Events, freq (events) [4]: 185 | All Adverse Events, n (patients) [4]: 55 | Serious AEs, % of patients [4]: 8.4% | Serious AEs, freq (events) [4]: 7 | Serious AEs, n (patients) [4]: 7 | Treatment Emergent Adverse Events (TEAEs), % of patients [4]: 65.1% | Treatment Emergent Adverse Events (TEAEs), freq (events) [4]: 173 | Treatment Emergent Adverse Events (TEAEs), n (patients) [4]: 54 | Adverse events, Drug Relationship: Related, % of patients [5]: 15.7% | Adverse events, Intensity: Moderate, % of patients [5]: 28.9% | Adverse events, Intensity: Severe, % of patients [5]: 6.0% | Adverse events, Drug Relationship: Related, % of patients [6]: 15% | Adverse events, Intensity: Moderate, % of patients [6]: 29% | Pre-Treatment Signs and Symptoms (PTSS), % of patients (400 mg bid group (N = 83)): 9.6% | Pre-Treatment Signs and Symptoms (PTSS), freq (events) (400 mg bid group (N = 83)): 12 | Pre-Treatment Signs and Symptoms (PTSS), n (patients) (400 mg bid group (N = 83)): 8 | share of the 10 severe TEAEs (400 mg group): 50% | subjects with GI side effects (diarrhea in most cases) (400 mg group): approximately 35% | subjects who discontinued the phase 2a trial due to AEs or SAEs (400 mg group): 11 subjects | subjects receiving treatment with eosinophilia reported as an adverse event (200 and 400 mg groups together): 10 subjects | adverse events, drug groups compared with placebo (AEs otherwise similar between placebo and drug groups): higher rates in the drug group of nasopharyngitis, GI symptoms including diarrhea and transient, asymptomatic blood eosinophilia | course of the increase in eosinophil level: declined to normal levels | course of the increase in eosinophil level (listed as salt of Formula (II)): transient | life-threatening (Grade 4) adverse events (any group, 26 weeks): no life-threatening (Grade 4) adverse events | heart rate and body temperature (during the visits): no clinically significant changes | rate of several adverse events, 400 mg versus 200 mg (for some events statistically significant): higher for the 400 mg group | MRI-based safety analysis (in vivo): no drug related adverse outcomes including hemorrhage or edema; also recorded: no events that raised any concern about the drug safety | safety laboratory and urine analysis (in vivo): did not show any patterns of concern | overall safety and tolerability (26 weeks): no results raised any concerns about the safety | overall safety and tolerability (26 weeks, listed as salt of Formula (II)): no serious adverse events occurred that raised concerns about the tolerability of the drug | 12-lead ECG (safety population): no relevant changes; also recorded: No significant changes | blood pressure (safety population): no relevant changes; also recorded: No significant changes | vital signs (safety population): no relevant changes; also recorded: No significant changes | highest eosinophil level reached (treatment group): ≤ 5000 per μl | subjects with eosinophil counts transiently above 500 per μl (verum group): 73 subjects | subjects with increased eosinophil value considered clinically significant (week 4): 11 subjects
